Literature values, collected in patent US7064108B2 (Merck & Co., Inc., priority 2002, dated 2006).

What was measured:
[1] = system: glutamate-gated chloride ion channels; details: invertebrate nerve and muscle cells
[2] = system: mammalian ligand-gated chloride channels
[3] = system: Onchocerca volvulus; details: after one month; single oral dose approximately 150 ug/kg
[4] = system: head lice (Pediculosis capitis); details: single oral 200 ug/kg dose, 26 patients
[5] = system: head lice; details: after a single topical application
[6] = system: head lice; details: single oral dose of 100–200 ug/kg
[7] = system: Onchocerca volvulus
[8] = amicrofilaremic population in mass treatment programs

| Compound | plasma half life (metabolite of ivermectin) | affinity for glutamate-gated chloride ion channels [1] | affinity for mammalian ligand-gated chloride channels [2] | dermal microfilarial density [3] | effect against head lice [4] | effect on head lice [5] | effect on head lice infestation [6] | activity against adult form ([7]; adult form of Onchocerca volvulus) | activity against tissue microfilariae ([7]; tissue microfilariae of Onchocerca volvulus) | plasma half-life (in vivo) [h] | overall incidences of adverse experiences [8] [%] |
| --- | --- | --- | --- | --- | --- | --- | --- | --- | --- | --- | --- |
| Nc1nc2cccc(-c3ccc(CN4CCS(=O)(=O)CC4)cc3)n2n1 [metabolite] | about 3 days | – | – | – | – | – | – | – | – | – | – |
| Ivermectin | – | high affinity | low affinity | near zero | effectiveness | absolute curative effect | significant, but not absolute, effect | not against the adult form | active | 15 to 20 | 1 |
